In ChEMBL document CHEMBL1148257, “The significant effect of the carbohydrate structures on the DNA photocleavage of the quinoxaline-carbohydrate hybrids” (Bioorg Med Chem Lett, 2004):

Legend:
Nucleic Acid = assay: Concentrations of compound at which 50% Form I DNA was converted into Form II DNA of Phi X 174; assay type: functional
HeLa [1] = assay: Cytotoxicity of compound against HeLa S3 cells exposed to compound for 72 hr with 1 hr photoirradiation; details: Homo sapiens, light or radiation study
HeLa [2] = assay: Cytotoxicity of compound against HeLa S3 cells without photoirradiation; assay type: functional, cell-based; details: Homo sapiens, light or radiation study

SMILES | CC50 (Nucleic Acid) [µM] | IC50 (HeLa [1]) [µM] | IC50 (HeLa [2]) [µM]
CC1O[C@H](OC2C(O)C[C@@H](OCCOC(=O)c3cnc4ccccc4n3)OC2C)CC(N)C1O (some centres undefined) | 160 | – | –
CC1O[C@H](OC2C(O)C[C@H](OCCOC(=O)c3cnc4ccccc4n3)OC2C)CC(N)C1O (some centres undefined) | 43 | 6 | > 100
